In series [1] the target is Gamma-secretase. The series is described as follows: Effect on gamma-secretase activity in human H4 cells expressing APP695 assessed as increase in Amyloid beta-38 formation by LPECL assay. The class given is cell-based. The note with it: read-out: IC50 (the source's name).
Series [2] deals with Gamma-secretase. In words: Effect on gamma-secretase activity in human H4 cells expressing APP695 assessed as reduction of Amyloid beta-40 formation LPECL assay. The class given is cell-based.
Series [3] has as its target Gamma-secretase. In words: Effect on gamma-secretase activity in human H4 cells expressing APP695 assessed as reduction of Amyloid beta42 formation LPECL assay. The class given is cell-based.
In series [4] the test system is H4. The series is described as follows: Cytotoxicity against human H4 cells assessed as reduction of viability. Type of series: cell-based.
Series [5] has as its target Prostaglandin G/H synthase 1 (Homo sapiens) (UniProt P23219). In words: Activity of COX1 at 10 uM.
Series [6] has as its target T1, Prostaglandin G/H synthase 2 (Homo sapiens) (UniProt P35354).
T1 sequence (whole entry): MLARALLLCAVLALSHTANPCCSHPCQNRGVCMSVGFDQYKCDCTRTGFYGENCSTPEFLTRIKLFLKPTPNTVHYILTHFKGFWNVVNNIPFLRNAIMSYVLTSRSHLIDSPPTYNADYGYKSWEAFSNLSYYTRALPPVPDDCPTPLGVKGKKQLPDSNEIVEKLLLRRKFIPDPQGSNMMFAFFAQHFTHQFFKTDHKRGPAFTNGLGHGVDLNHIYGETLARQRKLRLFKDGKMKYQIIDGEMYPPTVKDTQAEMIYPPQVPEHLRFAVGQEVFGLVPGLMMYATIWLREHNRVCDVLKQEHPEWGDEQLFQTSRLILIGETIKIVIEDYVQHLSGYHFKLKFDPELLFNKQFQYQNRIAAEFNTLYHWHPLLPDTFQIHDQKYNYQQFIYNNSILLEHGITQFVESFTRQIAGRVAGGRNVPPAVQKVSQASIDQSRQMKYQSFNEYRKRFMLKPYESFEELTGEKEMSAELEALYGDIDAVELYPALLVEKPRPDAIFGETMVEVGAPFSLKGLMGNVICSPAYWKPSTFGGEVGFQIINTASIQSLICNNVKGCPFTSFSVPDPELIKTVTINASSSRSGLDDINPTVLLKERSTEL
The series is described as follows: Activity of COX2 at 10 uM.

Each structure is given as a SMILES string. Calls of active or inactive are those of the source. The rule behind the calls is not given here.

Prostaglandin G/H synthase 1 (Homo sapiens), sequence (P23219 whole entry): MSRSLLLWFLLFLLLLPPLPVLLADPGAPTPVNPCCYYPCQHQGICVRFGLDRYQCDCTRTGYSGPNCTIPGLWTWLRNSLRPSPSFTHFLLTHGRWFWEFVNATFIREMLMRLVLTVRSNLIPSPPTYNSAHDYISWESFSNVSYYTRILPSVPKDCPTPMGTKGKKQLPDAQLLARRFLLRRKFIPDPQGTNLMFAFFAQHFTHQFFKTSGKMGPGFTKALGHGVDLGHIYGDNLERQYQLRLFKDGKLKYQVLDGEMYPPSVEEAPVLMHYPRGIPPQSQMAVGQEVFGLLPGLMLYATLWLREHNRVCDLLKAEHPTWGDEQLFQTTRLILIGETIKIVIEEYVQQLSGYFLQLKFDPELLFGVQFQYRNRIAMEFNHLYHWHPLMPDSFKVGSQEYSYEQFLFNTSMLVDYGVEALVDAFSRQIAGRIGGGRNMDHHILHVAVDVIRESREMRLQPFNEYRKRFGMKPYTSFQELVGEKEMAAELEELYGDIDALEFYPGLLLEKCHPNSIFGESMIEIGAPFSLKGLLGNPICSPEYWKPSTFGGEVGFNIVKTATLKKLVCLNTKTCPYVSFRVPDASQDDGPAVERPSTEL

As a reminder, the IC50 is the midpoint of a concentration-inhibition curve. For `O=C(O)COc1ccc2c3ccccc3n(S(=O)(=O)c3ccccc3Br)c2c1`, the EC50 in series [1] is above 40 µM. Besides, the IC50 in series [2] and in series [3] was above 40 µM throughout. In series [4], the Activity stood at 40 µM.
In the case of `O=C(O)COc1ccc2c3ccccc3n(S(=O)(=O)c3cc(F)cc(F)c3)c2c1`, the EC50 in series [1] was 13 µM. Also, the IC50 in series [2] and in series [3] was above 40 µM in each case. Besides, in series [4], the Activity amounted to 40 µM.
`CC(C)c1cc(C(C)C)c(S(=O)(=O)n2c3ccccc3c3ccc(OCC(=O)O)cc32)c(C(C)C)c1`: the EC50 in series [1] turned out to be 7.8 µM. In addition, the half-maximal inhibitory concentration (IC50) stood at 19 µM in series [2] and 7.5 µM in series [3]. Further, the Activity in series [4] is 20 µM. Further, the outcome in series [5] and in series [6] was inactive.
Consider `CC(C)c1cc(C(C)C)c(S(=O)(=O)n2c3ccc(Cl)cc3c3ccc(C(C)C(=O)O)cc32)c(C(C)C)c1` (configuration not stated), for which the EC50 in series [1] came to 9.3 µM. The results for the IC50 in series [2] and in series [3] were above 20 µM and 8.5 µM, respectively.
For `CCCCCCCCCn1c2ccccc2c2ccc(OCC(=O)O)cc21`, in series [1], the EC50 amounted to 30 µM. Besides, the IC50 in series [2] was above 40 µM; in series [3], 17 µM. Further, in series [4], the Activity is above 40 µM.
Regarding `CCCCCCCCc1ccc(S(=O)(=O)n2c3ccccc3c3ccc(OCC(=O)O)cc32)cc1`, the IC50 in series [2] is above 40 µM; in series [3], 37 µM. Further, in series [4], the Activity is above 40 µM.
In the case of `Cc1ccc(S(=O)(=O)n2c3ccccc3c3ccc(OCC(=O)O)cc32)cc1`, the EC50 in series [1] is 13 µM. Further, the IC50 in series [2] was above 40 µM; in series [3] it was 39 µM. Besides, the Activity in series [4] is 20 µM.
Turning to `O=C(O)COc1ccc2c3ccccc3n(S(=O)(=O)c3cccc([N+](=O)[O-])c3)c2c1`, in series [1], the EC50 was found to be 16 µM. Moreover, the IC50 in series [2] and in series [3] was above 40 µM each time. For the same molecule, the Activity in series [4] turned out to be 40 µM.
Regarding `CCCCCCCCCCn1c2ccccc2c2ccc(OCC(=O)O)cc21`, the IC50 was above 40 µM in series [2] and 11 µM in series [3]. For the same molecule, the Activity in series [4] is above 40 µM.
With `O=C(O)COc1ccc2c3ccccc3n(S(=O)(=O)c3ccc(Cl)cc3)c2c1`, the EC50 in series [1] was 32 µM. The IC50 is above 40 µM in series [2] and 32 µM in series [3]. Moreover, the Activity in series [4] worked out at 40 µM.
Take `O=C(O)COc1ccc2c3ccccc3n(S(=O)(=O)c3ccc(-c4ccccc4)cc3)c2c1`: the EC50 in series [1] came out at 13 µM. The results for the IC50 in series [2] and in series [3] were 40 µM and 24 µM, respectively. For the same molecule, in series [4], the Activity amounted to 20 µM.
On to `CCCc1ccc(S(=O)(=O)n2c3ccccc3c3ccc(OCC(=O)O)cc32)cc1`, for which the half-inhibitory concentration (IC50) in series [2] is above 40 µM; in series [3], 38 µM. For the same molecule, in series [4], the Activity is above 40 µM.
Take `O=C(O)COc1ccc2c(c1)[nH]c1ccccc12`: the EC50 in series [1] was above 40 µM. For the same molecule, the half-maximal inhibitory concentration (IC50) in series [2] and in series [3] was above 40 µM throughout. For the same molecule, in series [4], the Activity is above 40 µM.
With `O=C(O)COc1ccc2c3ccccc3n(S(=O)(=O)c3cc(C(F)(F)F)cc(C(F)(F)F)c3)c2c1`, the EC50 in series [1] is above 40 µM. The IC50 in series [2] and in series [3] was above 40 µM throughout. Further, in series [4], the Activity was 20 µM.
Take `C[C@H](c1ccc(F)cc1CCCC(=O)O)N(c1cc(F)ccc1F)S(=O)(=O)c1ccc(Cl)cc1`: the IC50 in series [3] worked out at 0.0071 µM.
For `CCCCCCCCn1c2ccccc2c2ccc(OCC(=O)O)cc21`, the EC50 in series [1] was determined as 24 µM. In addition, the figures for the IC50 in series [2] and in series [3] were above 40 µM and 19 µM, respectively. Besides, in series [4], the Activity is above 40 µM.
In the case of `CCCCCCCCCCn1c2ccc(Cl)cc2c2ccc(C(C)C(=O)O)cc21` (configuration not stated), in series [1], the EC50 worked out at 5.8 µM. For the same molecule, the IC50 was above 40 µM in series [2] and 2.9 µM in series [3].

The values are drawn from ChEMBL document CHEMBL1138377, “N-Substituted carbazolyloxyacetic acids modulate Alzheimer associated gamma-secretase” (Bioorg Med Chem Lett, 2007).
